Tests used:
BCL-2 = target: T1, BCL-2 (Homo sapiens, UniProt P10415); experiment: Immunoblot degradation of BCL-2 in Jurkat cells; assay type: cell-based; conditions: for DC50: 16 h treatment, immunoblot
T1 construct: endogenous in cells; host or cells: Jurkat (ATCC TIB-152)
Description: (§1) The data are presented as mean ± s.d. from three replicate cell cultures in a representative experiment for Jurkat cells. h Left, WH244 induces polyubiquitination of WT, K22R BCL-2 and to some extent K17R but not K17/22R BCL-2 in 293T cells. 293T cells were co-transfected as indicated with Flag-BCL−2 WT or mutants and HA-tagged ubiquitin (HA-Ub) plasmids. After 36 h, cells were pretreated with MG132 (10 µM) for 2 h and then treated with or without WH244 (1 μM) for 5 h. The Flag-tagged proteins were immunoprecipitated (IP) and immunoblotted with HA or Flag antibody. Right, The input blot for this assay. Data are a representative of two independent experiments. Source data are provided as Source Data file.
(§2) Cells were collected, washed once with ice-cold phosphate-buffered saline, pH 7.2 (PBS, cat. no. 20012027; Thermo Fisher Scientific) and lysed in RIPA lysis buffer (Cat. No. BP-115DG, Boston Bio Products, Ashland, MA, USA) supplemented with protease and phosphatase inhibitor cocktails (Cat. No. PPC1010, Sigma-Aldrich, St. Louis, MO, USA) through sonication. The samples were centrifuged at 15,000 × g for 5 min and the supernatants were transferred into a new tube. The protein concentration in the supernatants was determined using the Pierce BCA protein Assay kit (cat. no. 23225, Thermo Fisher Scientific). The protein concentration was normalized, and the samples were reduced in 4× Laemmli’s SDS-sample buffer (cat. no. BP-110R, Boston Bio Products) and denatured at 95 °C for 5 min. An equal amount of protein samples (20–40 μg per lane) were resolved using precast 4–20% Tris-glycine gels (Mini-PROTEAN TGX, cat. no. 456–1094, Bio-Rad), and resolved proteins were transferred onto 0.2-μm pore size polyvinylidene difluoride (PVDF) blotting membranes (cat. no. LC2002, Thermo Fisher Scientific) using mini trans-blot electrophoretic transfer cell (Bio-Rad). The membranes were blocked with non-fat dry milk (5% wt/vol) in 1×Tris- buffered saline-Tween-20 (TBST) for 1 h at room temperature, and were subsequently probed with primary antibodies at a pre-determined optimal concentration in non-fat dry milk (5% wt/vol in TBST) overnight at 4 °C. The membranes were washed three times (15 min each) in TBST and then incubated with horse radish peroxidase (HRP)-conjugated secondary antibodies for 1 h at room temperature. Following sufficient washing with TBST, the membranes were exposed with ECL Western Blotting Substrate (Bio-Rad), and the signal was detected using the ChemiDoc MP Imaging System (Bio-Rad) and quantified using the ImageJ (v1.53a) software from NIH. Antibodies were purchased from Cell Signaling Technologies (CST) and the dilutions are as follows: BCL-xL (Cat. No. 2762S, 1:1000) and BCL-2 (Cat. No. 2870S, 1:1000). β-actin antibody was purchased from MP Biomedicals (Cat. No. 8691001, 1:20,000).

WT BCL-xL = target: T2, WT BCL-xL (Homo sapiens, UniProt Q07817); experiment: AlphaScreen displacement binary binding assay, WT BCL-xL; conditions: for Kd: Supplementary Fig. 11
T2 construct: BCL-xL (aa 2-212) and BCL-2 (aa 1-207) transformed cells were grown in LB broth; SMT3 (N); made in house; host or cells: E. coli BL21 (DE3) codon plus
T2 sequence (Q07817 2-212): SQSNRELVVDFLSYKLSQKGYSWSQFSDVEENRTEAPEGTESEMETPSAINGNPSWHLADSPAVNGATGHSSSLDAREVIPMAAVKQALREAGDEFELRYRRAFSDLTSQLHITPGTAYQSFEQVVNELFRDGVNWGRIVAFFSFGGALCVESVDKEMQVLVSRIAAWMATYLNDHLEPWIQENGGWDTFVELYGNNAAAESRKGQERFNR
Description: To test the binary/ternary binding affinities of compounds to BCL-2/BCL-xL, AlphaScreen displacement binding assay was performed to test the capabilities of testing compounds to displace a Biotin-tagged Bim (Biotin-[…]) or Bad (Biotin-[…]) from BCL-2 or BCL-xL for BCL-2 and BCL-xL binding affinities, respectively. All reagents were diluted in assay buffer of 25 mM HEPES, pH 7.5, 150 mM NaCl, 0.1% BSA, and 0.005% tween 20 prior incubation. To a 96-well PCR plate (VWR, Cat. No. 82006-636) was added 10 μL Biotin-tagged Bim (15 nM for WT or 50 nM for mutants) or Bad (15 nM for WT or 50 nM for mutants), 10 μL series diluted compounds solution (2 or 3 or 4× dilution), and 10 μL self-made 6×His tagged BCL-2 WT or mutants (25 nM WT or 50 nM mutants) or 10 μL self-made BCL-xL WT and mutants (10 nM WT or 50 nM mutants). After incubating at room temperature for 30 min, 5 µL of 160 μg/mL of anti-6×His acceptor beads (PerkinElmer, Cat. No. AL128M) was added and the mixture was incubated at room temperature for 15 min. 5 µL of 160 μg/mL of streptavidin donor beads (PerkinElmer, 6760002) was then added under subdued light and the mixture was incubated at dark for 30 min before being transferred to two adjacent wells (17 µL each) of 384-well white OptiPlate (PerkinElmer, Cat. No. 6008280). The luminescence signal was detected on a Biotek’s Synergy Neo2 multimode plate reader installed with an AphaScreen filter cube. The Ki values of each compounds were calculated by fitting data into the “Binding-competitive, One site-Fit Ki” function in GraphPad Prism (9.2.0) based on concentrations of Biotin–peptide used and experimentally determined Kd values of each 6×His protein &&&and Biotin–Peptide pair.

BCL-xL = target: T3, BCL-xL (Homo sapiens, UniProt Q07817); experiment: Immunoblot degradation of BCL-xL in Jurkat cells; assay type: cell-based; conditions: for DC50: 16 h treatment, immunoblot
T3 construct: endogenous in cells; host or cells: Jurkat (ATCC TIB-152)
T3 sequence (Q07817 whole entry): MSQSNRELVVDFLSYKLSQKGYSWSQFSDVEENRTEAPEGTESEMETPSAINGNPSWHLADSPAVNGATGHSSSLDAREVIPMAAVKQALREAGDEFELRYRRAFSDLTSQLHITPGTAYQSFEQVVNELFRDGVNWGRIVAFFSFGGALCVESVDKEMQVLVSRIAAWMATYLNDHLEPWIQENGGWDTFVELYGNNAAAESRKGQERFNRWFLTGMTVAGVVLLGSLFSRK
Description: as §1, §2

[1] = 0.1 μM WH244 for 16 h, then fresh medium, Jurkat cells

T1 sequence (P10415 whole entry): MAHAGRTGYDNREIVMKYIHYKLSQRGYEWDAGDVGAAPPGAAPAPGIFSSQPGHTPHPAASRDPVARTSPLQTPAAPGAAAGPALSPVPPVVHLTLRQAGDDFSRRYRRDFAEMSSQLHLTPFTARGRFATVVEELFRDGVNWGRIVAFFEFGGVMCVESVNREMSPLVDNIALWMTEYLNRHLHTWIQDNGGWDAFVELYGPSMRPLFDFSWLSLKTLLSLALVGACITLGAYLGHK

SMILES | Earliest time at which BCL-2 degradation is seen (BCL-2; 0.1 μM WH244, Jurkat cells) [h] | Time to nearly complete degradation of BCL-2 (BCL-2; 0.1 μM WH244, Jurkat cells) [h] | Time for BCL-2 level to recover to pretreatment level after removal of degrader (BCL-2; [1]) [h] | DC50 fold better than 753b (BCL-2) (BCL-2; Jurkat cells, 16 h) [fold] | DC50 (BCL-2; Jurkat cells) [nM] | Kd (WT BCL-xL) [nM] | Earliest time at which BCL-xL degradation is seen (BCL-xL; 0.1 μM WH244, Jurkat cells) [h] | Time to nearly complete degradation of BCL-xL (BCL-xL; 0.1 μM WH244, Jurkat cells) [h] | Time for BCL-xL level to recover to pretreatment level after removal of degrader (BCL-xL; [1]) [h] | DC50 fold better than 753b (BCL-xL) (BCL-xL; Jurkat cells, 16 h) | DC50 (BCL-xL; Jurkat cells) [nM] | Ki (WT BCL-xL; mean ± s.d., n=3) [nM]
Cc1ncsc1-c1ccc([C@H](C)NC(=O)[C@@H]2C[C@@H](O)CN2C(=O)[C@@H](NC(=O)CN2CCN(CC(=O)N3CCN(C[C@]4(C)CCC(c5ccc(Cl)cc5)=C(CN5CCN(c6ccc(C(=O)NS(=O)(=O)c7ccc(N[C@H](CCN8C[C@@H]9C[C@H]8CO9)CSc8ccccc8)c(S(=O)(=O)C(F)(F)F)c7)cc6)CC5)C4)CC3)CC2)C(C)(C)C)cc1 [WH244] | 1 | 6 | 24 to 48 | ~6.8 | 7.4 | ~6.14 | 1 | 4 | 24 to 48 | ~ 6.2 fold | 0.6 | 
Cc1ncsc1-c1ccc(C(C)NC(=O)C2CC(O)CN2C(=O)C(NC(=O)CCCCCCC(=O)N2CCN(CC3(C)CCC(c4ccc(Cl)cc4)=C(CN4CCN(c5ccc(C(=O)NS(=O)(=O)c6ccc(NC(CCN7CCOCC7)CSc7ccccc7)c(S(=O)(=O)C(F)(F)F)c6)cc5)CC4)C3)CC2)C(C)(C)C)cc1 (stereo not drawn) [753b] |  |  |  |  | 50 | ~28 |  |  |  |  | 3.7 | 21.9 ± 7.3
